Where a SMILES comes first, the peptide text is derived from it.
Columns and labels:
[1] = target: T1, human amylin receptor (hAMY1(a)) (Homo sapiens, UniProt O60894+P30988); experiment: cAMP production (LANCE cAMP assay) in transfected Cos-7 cells; type: cell-based; details: Cos-7 cells expressing hAMY1(a)
T1 construct: expressed in transfected cells; host or cells: Cos-7 cells, transient transfection with PEI, pcDNA3.1 vectors
Description: (§1) Cell Culture and Transfection. Cos-7 cells were cultured and transfected for receptor activity assays as previously described in Bailey, R. J., and Hay, D. L. Peptides (2006) 27, pp. 1367-1375, the entire contents of which is incorporated herein by reference. Specifically, cells were cultured in Dulbucco's modified eagle medium (DMEM) with 8% heat-inactivated fetal bovine serum (FBS) and kept in a 37° C. humidified 95% air/5% CO2 incubator. Cells were plated at a density of 18,000-20,000 cells/well (depending on cell passage) in 96-well culture plate and returned to the incubator for approximately 18-24 hours. Transient transfections were carried out using polyethyleneimine (PEI) as described previously and maintained at 37° C. in a humidified 95% air/5% CO2 incubator for 36-48 hours. All DNA constructs used in this these were in pcDNA3.1 vectors.
(§2) cAMP Assay: Measurement of intracellular cAMP was achieved using a time-resolved fluorescent resonance energy transfer assay (LANCE cAMP assay, PerkinElmer), similar to the previously described Alphascreen assay as described in Gingell, J. J., et al. Peptides (2010) 31, pp. 1400-1404, with the following changes. Following stimulation with peptide agonist, cAMP assay media from the wells was thoroughly aspirated and 50 μl of ice-cold absolute ethanol added to each well. Plates were then placed in a −30° C. freezer for 10 minutes or overnight prior to assay, then removed and allowed to air dry in a fume hood for 1-2 hours. After ethanol evaporated from the plates, 50 μl of LANCE detection buffer (lysis buffer, 0.35% Triton X-100, 50 mM HEPES and 10 mM calcium chloride in ddH2O, pH 7.4) was added per well and left on a plate shaker for 10-15 minutes at room temperature. Meanwhile, a cAMP standard curve was generated using LANCE detection buffer and a serially diluted cAMP standard (50 μM) ranging from 1 μM to 10 pM. The serially diluted cAMP standards (5 μl) and cell lysates (5 μl) were transferred into 384-well opti-plates and sealed with a Sealplate®-A-384-well microplate adhesive film and briefly centrifuged (10 seconds, 500 rpm, 23° C.). A 1:200 dilution of LANCE assay Alexa Fluor® 647 anti-cAMP antibody was prepared in detection buffer and 5 μl added to each well. Plates were sealed and briefly centrifuged again (10 seconds, 500 rpm, 23° C.) and left to incubate, sealed for 30 minutes at room temperature. During this incubation, detection mix was made up consisting of detection buffer, Europium-W8044 labelled streptavidin (1:4500) and biotin-cAMP (1:1500). After 30 minutes incubation, 10 μl of detection mix was added to each well, plates were centrifuged (30 seconds, 500 rpm, 23° C.), sealed and left to incubate for 1 hour at room temperature. Plates were read after an overnight incubation on an Envision plate reader. A standard curve was included in each experiment to ensure accurate quantification of cAMP.
(§3) Data Analysis for Receptor Assays: Data were derived from independent experiments for statistical analysis and all experiments were performed and replicated. Quantification of cAMP was obtained from a standard curve included in each experiment and plotted using the software GraphPad Prism 6.0 (GraphPad Software Inc, San Diego, Calif., USA) with a non-linear regression 3-parameter logistic equation with a Hill Slope of 1 to determine the pEC50. The pEC50 values from the fits were combined from different experimental days and statistically tested for difference from the WT peptide using the Student's t-test with statistical significance defined as * p<0.05, ** p<0.01, *** p<0.001. Due to variability in amount of cAMP produced between experimental days, data were normalized to the control peptide for each experiment to obtain Emax values. For each analogue, data were normalized to the maximum (Emax) and minimum (Emin) responses of h-amylin. […]

[2] = target: T2, human calcitonin receptor (hCT(a)) (Homo sapiens, UniProt P30988); experiment: as above; type: cell-based; details: Cos-7 cells expressing hCT(a)
T2 construct: expressed in transfected cells; host or cells: Cos-7 cells, transient transfection with PEI, pcDNA3.1 vectors
T2 sequence (P30988 25-474): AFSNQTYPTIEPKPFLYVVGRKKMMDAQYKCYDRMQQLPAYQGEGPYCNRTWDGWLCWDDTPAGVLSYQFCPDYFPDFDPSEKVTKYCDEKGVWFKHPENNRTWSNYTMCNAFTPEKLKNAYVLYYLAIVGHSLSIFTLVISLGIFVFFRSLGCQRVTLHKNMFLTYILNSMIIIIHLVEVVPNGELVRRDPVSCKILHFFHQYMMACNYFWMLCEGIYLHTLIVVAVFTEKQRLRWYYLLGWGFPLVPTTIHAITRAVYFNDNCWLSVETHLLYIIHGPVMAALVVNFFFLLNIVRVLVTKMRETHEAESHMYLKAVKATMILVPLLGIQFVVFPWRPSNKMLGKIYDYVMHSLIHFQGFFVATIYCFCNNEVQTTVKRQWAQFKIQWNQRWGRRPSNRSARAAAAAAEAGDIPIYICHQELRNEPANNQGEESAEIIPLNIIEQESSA
Description: as §1, §2, §3

[3] = pH 7.4
Description: Dry peptides were dissolved into 10 mM PBS buffer at pH 7.4 at different initial concentrations, and were incubated for 7 days at 25° C. without stirring. Each sample was then centrifuged using a Beckman Coulter Microfuge 22R Centrifuge at 24° C. for 20 min. The relative centrifugal force used was 1.75×10^4 g. Solubility of each sample was approximated by measuring the absorbance of the corresponding supernatant at 280 nm measured using a Beckman Coulter DU 730 UV/Vis Spectrophotometer.
Each peptide tested was incubated in 10 mM PBS buffer at pH 7.4 for 7 days at three different concentrations (100 μM, 500 μM and 1 mM) and the solution was then centrifuged. The apparent solubility was represented by the absorbance of the supernatant of each sample measured at 280 nm. The extinction coefficients of all polypeptides are very similar at 280 nm since they all contain the same aromatic residues and each contains a disulfide bond. […] A peptide which is soluble at 1 mM and above will show a linear dependence of absorbance on initial concentration. A peptide which is less soluble will deviate from linearity. The peptides were centrifuged after 7 days and their apparent solubility measured by measuring the absorbance at 280 nm of the supernatant of each solution. The apparent concentration refers to the concentration which would be obtained if all of the peptide dissolved. The absorbance of the supernatant is directly proportion to the amount of peptide in solution.

[4] = pH 7
Description: 100 μL each solution was obtained immediately following dissolution with Novolin-N® and was centrifuged using a Beckman Coulter Microfuge (22R Centrifuge) at 24° C. for 20 minutes. The relative centrifugal force used was 1.75×104 g. Aliquots of each sample were immediately frozen and lyophilized. The remaining portion of each sample was not centrifuged and were incubated at 25° C. without stirring. Samples were collected again following the same procedures after 1 day, 7 days and 30 days. Dry samples were redissolved in 4:1 HPLC buffer mix (4A:1B, below) and immediately injected for liquid chromatography-mass spectroscopy (LC-MS) measurements. The HPLC buffers were (A) H2O (0.1% acetic acid and 0.02% TFA) and (B) CH3CN (0.1% acetic acid and 0.02% TFA). Solubility of each co-formulated sample was determined by measuring the absorbance from the liquid chromatogram traces at 215±8 nm and at 277±8 nm at each time point tested. points (0 hours, 24 hours, 7 days and 30 days post-formulation).

[5] = Transmission electron microscopy (TEM) of amyloid aggregates; type: physicochemical; details: for amyloid aggregates in TEM images: after 7 days of incubation, end of kinetic experiment
Description: Transmission Electron Microscopy (TEM). TEM images were recorded using an FEI Bio TwinG^2 Transmission Electron Microscope at the central microscopy center at Stony Brook University. 15 μL aliquots of the samples used for fluorescence assays were removed at the end of each kinetic experiment, blotted on a carbon formvar-coated 300-mesh copper grid for 1 min and then negatively stained with saturated uranyl acetate for 1 min. Images were taken at a 68,000× magnification and 100 nm under focus. Mutant-hIAPP polypeptides of the present disclosure were further analyzed using TEM. […] In contrast, no amyloid fibrils were formed after a 1 week (FIGS. 3B-E, left) or 6 week (FIGS. 3B-E, right) culture with the any of the mutant-hIAPP analogs tested.

[6] = Thioflavin-T fluorescence assay of amyloid formation kinetics; type: physicochemical; details: 16 μM peptide, 10 mM PBS pH 7.4, 25° C., no stirring; for amyloid formation monitored by thioflavin-T fluorescence: 1 week and 6 week incubations
Description: Sample Preparation. Each peptide was dissolved into 100% hexafluoroisoproponal (HFIP) to make a 0.5 mM stock solution. Stock solutions were filtered using […] Acrodisc syringe filter with a GHP membrane and the required amount of peptide was lyophilized overnight to remove HFIP. Dry peptide was dissolved into the appropriate buffer for the fluorescence assays. Fluorescence Assays. Thioflavin-T binding assays, conducted without HFIP or stirring at 25° C., were utilized to monitor amyloid formation kinetics. Fluorescence measurements were performed using a Spectramax Gemini EM plate reader. Corning 96-well non-binding surface black plates with lids were used and were sealed with polyethylene sealing tape. Samples were prepared by dissolving dry peptide into 10 mM PBS buffer (pH 7.4) and 32 μM thioflavin-T solution immediately before the measurement. Thioflavin-T fluorescence was measured with 450 nm excitation and emission at 485 nm was monitored. The final concentrations were 16 μM peptides. After creating the mutant-hIAPP polypeptides of the present disclosure, applicants tested the propensity of the different analogs to form amyloid at pH 7.4 using thioflavin-T fluorescence assays (FIGS. 2A-D) and TEM (FIGS. 3A-E). […] Amyloid formation follows a sigmoidal time course consisting of a lag phase in which few, if any, fibrils are formed, followed by a growth phase and a saturation phase in which amyloid fibrils are in equilibrium with soluble peptide.

T1 sequence (O60894 27-148 partner, one chain of several): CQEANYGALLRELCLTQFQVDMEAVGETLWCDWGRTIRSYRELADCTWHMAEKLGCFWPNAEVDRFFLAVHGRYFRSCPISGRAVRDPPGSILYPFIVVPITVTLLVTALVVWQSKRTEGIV

Row | EC50 ([1]; cAMP production, mean ± spread, read-out: Human Amylin1(a) receptor binding data pEC50 (converted)) [nM] | EC50 ([2]; cAMP production, mean ± spread, read-out: Human calcitonin receptor binding data pEC50 (converted)) [nM] | amyloid aggregates in TEM images [5] | amyloid fibrils in TEM images ([5]; after 1 week and 6 week time periods) | Structure (SMILES) | concentration-response of cAMP production compared with wild-type hIAPP [1] | concentration-response of cAMP production compared with wild-type hIAPP [2] | solubility at neutral pH (absorbance of supernatant at 280 nm) [3] | solubility co-formulated with Novolin-N (absorbance at 215 nm and 277 nm, LC-MS) [4] | amyloid formation monitored by thioflavin-T fluorescence [6] | time at which amyloid formation reaches the saturation phase ([6]; 32 μM thioflavin-T) [h]
1 | 0.372 | 2.82 | no aggregates are observed |  | CC[C@H](C)[C@H](NC(=O)[C@H](C)NC(=O)CNC(=O)[C@H](Cc1ccccc1)NC(=O)[C@H](CCCCN)NC(=O)[C@H](CC(N)=O)NC(=O)[C@H](CO)NC(=O)[C@H](CO)NC(=O)[C@H](Cc1c[nH]cn1)NC(=O)[C@@H](NC(=O)[C@H](CC(C)C)NC(=O)[C@H](Cc1ccccc1)NC(=O)[C@H](CC(N)=O)NC(=O)[C@H](C)NC(=O)[C@H](CC(C)C)NC(=O)[C@H](CCCNC(=N)N)NC(=O)[C@H](CCC(N)=O)NC(=O)[C@@H](NC(=O)[C@H](C)NC(=O)[C@@H]1CSSC[C@H](NC(=O)[C@@H](N)CCCCN)C(=O)N[C@@H](CC(N)=O)C(=O)N[C@@H]([C@@H](C)O)C(=O)N[C@@H](C)C(=O)N[C@@H]([C@@H](C)O)C(=O)N1)[C@@H](C)O)C(C)C)C(=O)N[C@@H](CC(C)C)C(=O)N1CCC[C@H]1C(=O)N[C@@H](CO)C(=O)N[C@H](C(=O)N[C@@H](CCCCN)C(=O)N[C@H](C(=O)NCC(=O)N[C@@H](CO)C(=O)N[C@@H](CC(N)=O)C(=O)N[C@H](C(=O)N[C@@H](Cc1ccc(O)cc1)C(N)=O)[C@@H](C)O)C(C)C)[C@@H](C)O [SEQ ID NO: 22] (HELM PEPTIDE1{K.C.N.T.A.T.C.A.T.Q.R.L.A.N.F.L.V.H.S.S.N.K.F.G.A.I.L.P.S.T.K.V.G.S.N.T.Y.[am]}$PEPTIDE1,PEPTIDE1,2:R3-7:R3$$$V2.0) | do not significantly alter amylin or calcitonin receptor activity | do not significantly alter amylin or calcitonin receptor activity | more substantially soluble than wild-type hIAPP | significantly higher absorbance when compared to both wild-type hIAPP and paramlintide | none of the mutant hIAPP polypeptides forms amyloid | 
2 |  |  | extensive amounts of amyloid fibers | typical amyloid fibril morphology | CC[C@H](C)[C@H](NC(=O)[C@H](C)NC(=O)CNC(=O)[C@H](Cc1ccccc1)NC(=O)[C@H](CC(N)=O)NC(=O)[C@H](CC(N)=O)NC(=O)[C@H](CO)NC(=O)[C@H](CO)NC(=O)[C@H](Cc1c[nH]cn1)NC(=O)[C@@H](NC(=O)[C@H](CC(C)C)NC(=O)[C@H](Cc1ccccc1)NC(=O)[C@H](CC(N)=O)NC(=O)[C@H](C)NC(=O)[C@H](CC(C)C)NC(=O)[C@H](CCCNC(=N)N)NC(=O)[C@H](CCC(N)=O)NC(=O)[C@@H](NC(=O)[C@H](C)NC(=O)[C@@H]1CSSC[C@H](NC(=O)[C@@H](N)CCCCN)C(=O)N[C@@H](CC(N)=O)C(=O)N[C@@H]([C@@H](C)O)C(=O)N[C@@H](C)C(=O)N[C@@H]([C@@H](C)O)C(=O)N1)[C@@H](C)O)C(C)C)C(=O)N[C@@H](CC(C)C)C(=O)N[C@@H](CO)C(=O)N[C@@H](CO)C(=O)N[C@H](C(=O)N[C@@H](CC(N)=O)C(=O)N[C@H](C(=O)NCC(=O)N[C@@H](CO)C(=O)N[C@@H](CC(N)=O)C(=O)N[C@H](C(=O)N[C@@H](Cc1ccc(O)cc1)C(N)=O)[C@@H](C)O)C(C)C)[C@@H](C)O [Wild-type hIAPP, reference compound] |  |  |  |  | forms significant amounts of amyloid | ≤ 30

Source: patent US11028137B2, “Mutant islet amyloid polypeptides with improved solubility and methods for using the same” (priority 2017, dated 2021)
